From patent US10815237B2, “Antimicrobials and methods of making and using same” (BIOVERSYS AG, priority 2016, dated 2020)

Legend:
[1] = system: Staphylococcus aureus (S. aureus) 11540 strain; experiment: standard microdilution MIC, S. aureus; type: cell-based; details: for MIC: Staphylococcus aureus
Protocol: (§1) The in vitro activity of the compounds of the present disclosure can be determined. Antimicrobial testing is typically performed to determine the minimum inhibitory concentration (MIC). Minimum inhibitory concentrations (MICs) are determined by the microdilution method in a final volume of 100 μl according to protocols outlined by The Clinical and Laboratory Standards Institute (CLSI). Performance standards for reference strains are assessed within the same experimental design to maintain quality control. See, for example, Clinical Laboratory Standards Institute: Methods for dilution antimicrobial susceptibility tests for bacteria that grow aerobically M7-A8. Approved Standard-Eighth Edition. Wayne, Pa.: CLSI; December 2008; and Clinical Laboratory Standards Institute: Performance Standards for Antimicrobial Susceptibility Testing M100-S20; Approved Standard-Twentieth Edition. Wayne, Pa.: CLSI; June 2010.
(§2) The compounds of the present disclosure were tested for antimicrobial activity. The Compounds 1-23 were run against Eschericia coli (E. coli) strain ATCC25922 and against Staphylococcus aureus (S. aureus) 11540 strain using a standard microdilution assay to determine minimum inhibitory concentrations (MICs). […] It will be recognized by one skilled in the art that the compounds can be assessed against other bacterial organisms and that the presentation of data for activity against Eschericia coli and Staphylococcus aureus are illustrative and in no way is intended to limit the scope of the present disclosure. The compounds of the present disclosure can be assayed against a range of other microorganisms depending upon the performance activity desired to be gathered. Furthermore, the “+” and “−” representation and the selection of a cutoff value of 16 micrograms/mL is also illustrative and in no way is intended to limit the scope of the present disclosure.

[2] = system: Eschericia coli (E. coli) strain ATCC25922; experiment: standard microdilution MIC, E. coli; type: cell-based, Escherichia coli; details: for MIC: Escherichia coli
Protocol: as §1, §2

[3] = system: Chinese hamster ovary (CHO) cells; experiment: cytotoxicity against CHO cell line (Cell Titer Blue); type: cell-based; details: CHO-K1 cells, 24 hours incubation, percent cell kill
Protocol: The compounds of the present disclosure were tested for cytotoxicity against Chinese hamster ovary (CHO) cells.
The assay was performed by seeding CHO—K1 in F12K medium containing 13.33% Fetal Bovine Serum […]. 37.5 μl of cell suspension at a concentration of 9,500 cells/well was plated into each column of a 384-well black clear bottom assay plate with the exception of a negative (no cell) control column, and allowed to adhere for 2 hours. The culture media was then removed from the 175 cm^2 flask(s) and the cell monolayer washed with 10 mL of Phosphate Buffered Saline PBS. 3 mL of Cellstripper™ was then added and the flask was incubated for approximately 5 min at 37° C. The cells were dissociated by agitation and 7 mL of F 12K medium containing 10% FBS was added to the flask. A homogeneous cell suspension was obtained by trituration of the flask. The cells were counted with a hemocytometer by diluting an aliquot of the cell suspension in PBS with 0.4% trypan blue. Typically, a ratio of 100 μl cell suspension to 1800 μl PBS to 100 μl trypan blue was used.
The volume of cell suspension containing the number of cells needed to seed the plate(s) (15.2 mL containing 3.8×10^6 cells) was calculated and transferred to a 50 mL centrifuge tube with the appropriate volume of media. 37.5 μl of cells were added to each well of the 384 well plate except for the negative (no cell) control column. A cytotoxicity 100-fold dilution plate was then prepared by manually pipetting 18 μl of 100% DMSO into two columns of an empty low volume dilution plate. 2 μl of a 50 mM solution of compounds 1-23 from the translation plate were manually pipetted into the corresponding columns of the 100-fold dilution plate. 10 μl of 100% DMSO was manually pipetted into all remaining columns of the 100-fold plate.
A 4-fold cytotoxicity plate was prepared beforehand by manually pipetting 48 μl of F12K media (without DMSO and without FBS) into each well of a matrix 384 well plate. The test samples in the 100-fold dilution plate were mixed and diluted. Ten 2-fold dilutions were performed for each compound in duplicate. The 384 cannula array then transferred 2 μl to the 48 μl of media in the cytotoxicity 4-fold dilution plate. The array was then mixed and 12.5 μl of samples from the cytotoxicity 4-fold dilution plate were transferred to the 37.5 μl of cells and media. The final top concentration of samples at this point in the procedure was 50 μM with 10 subsequent 1:2 dilutions down to […]. The final DMSO concentration were 1% and the final concentration of FBS was 10%.
Cycloheximide was run as a control. Specifically, Cycloheximide was diluted to 0.1 mM from 100 mM stock […] and was added to the cytotoxicity 100-fold plate. Upon addition to the cell plate, a range of 1 μM to 1 nM of cycloheximide was run.
A column separate from the one (referred to above) that served as the negative control was used for cell control wells to which only media was added.
The plates were then incubated for 24 hours at 37° C. and 5% CO2. […] The two columns used earlier to prepare the 100-fold dilution plate by pipetting 18 μl of 100% DMSO contained the samples tested at 200 μM. After the 24 hour incubation period, the 4 μl of Cell Titer blue was added to each well using a Multichannel Matrix pipettor. The plates were returned to the incubator and incubated for an additional 5 hours. Fluorescence (530 nm excitation wavelength/590 nm emission wavelength) was measured on a Wallac Victor microplate reader.
Cell viability was assessed fluorometrically after a 5 hour incubation with resazurin (Cell Titer Blue™), which is reduced by living cells to the fluorescent resorufin.
The average fluorescence for the negative control was determined to obtain the average blank fluorescence. The average blank fluorescence was subtracted from the fluorescence values obtained for all the test agents. The resulting values are the corrected fluorescence. […]

| SMILES | MIC [1] | MIC [2] | MIC S. aureus [1] | MIC E.coli [2] | IC50 [3] | IC50 ([3]; Cricetulus griseus, 24 h) |
| --- | --- | --- | --- | --- | --- | --- |
| C[C@H](N)CCCc1cc(Cl)c(F)c(-c2cc3cn(-c4ccc([C@@H]5CCC[C@@H](CCNC(=N)CN)N5)cc4)c(=O)nc3[nH]2)c1 [Compound 14] |  |  | + (the compound has an MIC value of 16 micrograms/mL or less) | + (the compound has an MIC value of 16 micrograms/mL or less) | > 100 µM |  |
| COC[C@H](N)CCCc1cc(OC(F)(F)F)c(F)c(-c2cc3cn(-c4ccc([C@@H]5CCC[C@@H](CCNC(=N)CN)N5)cc4)c(=O)nc3[nH]2)c1 [Compound 11] | ≤ 16 µg/mL | ≤ 16 µg/mL |  |  |  | > 100 µM |
| C[C@H](N)CCCc1cc(Cl)c(F)c(-c2cc3cn(-c4ccc(CN[C@@H](CO)CCNC(=N)CN5CCSCC5)cc4)c(=O)nc3[nH]2)c1 [Compound 4] | ≤ 16 µg/mL | ≤ 16 µg/mL |  |  |  | > 100 µM |
| C=C[C@H](N)CCCc1cc(-c2cc3cn(-c4cc(F)c([C@@H]5CCC[C@@H](CCNC(=N)CN)N5CCCF)c(SC)c4)c(=O)nc3[nH]2)cc(C(F)(F)F)c1 [Compound 62] | ≤ 16 µg/mL | > 16 µg/mL |  |  |  | > 100 µM |
| C[C@H](N)CCCc1cc(Cl)c(F)c(-c2cc3cn(-c4ccc([C@@H]5CCC[C@@H](CCNC(=N)[C@@H](C)N)N5)cc4)c(=O)nc3[nH]2)c1 [Compound 59] | ≤ 16 µg/mL | ≤ 16 µg/mL |  |  |  | > 100 µM |
| CSc1cc(-n2cc3cc(-c4cc(CCC[C@@H](N)C5CC5)cc(C(F)(F)F)c4)[nH]c3nc2=O)cc(F)c1[C@@H]1CCC[C@@H](CCNC(=N)CN)N1CCCF [Compound 54] | ≤ 16 µg/mL | > 16 µg/mL |  |  |  | > 100 µM |
| C[C@H](N)CCCc1cc(Cl)c(F)c(-c2cc3cn(-c4cc(F)c([C@@H]5CCC[C@@H](CCNC(=N)CN)N5)c(F)c4)c(=O)nc3[nH]2)c1 [Compound 15] | ≤ 16 µg/mL | ≤ 16 µg/mL |  |  |  | > 100 µM |
| C=C[C@H](N)CCCc1cc(-c2cc3cn(-c4ccc([C@@H]5CCC[C@@H](CCNC(=N)CN)N5CCCF)c(SC)c4)c(=O)nc3[nH]2)cc(C(F)(F)F)c1 [Compound 55] | ≤ 16 µg/mL | ≤ 16 µg/mL |  |  |  | > 100 µM |
| C[C@H](N)CCCc1cc(Cl)c(F)c(-c2cc3cn(-c4ccc([C@@H]5CCC[C@@H](CCNC(=N)[C@H](C)N)N5)cc4)c(=O)nc3[nH]2)c1 [Compound 60] | ≤ 16 µg/mL | ≤ 16 µg/mL |  |  |  | > 100 µM |

The next lines start with results.

| MIC [1] | MIC [2] | SMILES | MIC S. aureus [1] | MIC E.coli [2] | IC50 [3] | IC50 ([3]; Cricetulus griseus, 24 h) |
| --- | --- | --- | --- | --- | --- | --- |
| ≤ 16 µg/mL | ≤ 16 µg/mL | C[C@H](N)CCCc1cc(Cl)c(F)c(-c2cc3cn(-c4ccc([C@@H]5CCC[C@@H](CNC(=N)CN)N5)cc4)c(=O)nc3[nH]2)c1 [Compound 68] |  |  |  | 85.3 µM |
| ≤ 16 µg/mL | ≤ 16 µg/mL | CSc1cc(-n2cc3cc(-c4cc(CCC[C@H](C)N)cc(Cl)c4F)[nH]c3nc2=O)ccc1[C@@H]1CCC[C@@H](CCNC(=N)CN)N1CCCF [Compound 49] |  |  |  | 21.1 µM |
| ≤ 16 µg/mL | ≤ 16 µg/mL | C=C[C@H](N)CCCc1cc(Cl)c(F)c(-c2cc3cn(-c4ccc([C@@H]5CCC[C@@H](CCNC(=N)CN)N5CCCF)c(F)c4)c(=O)nc3[nH]2)c1 [Compound 66] |  |  |  | 37.3 µM |
| ≤ 16 µg/mL | ≤ 16 µg/mL | C=C[C@H](N)CCCc1cc(Cl)c(F)c(-c2cc3cn(-c4ccc([C@@H]5CCC[C@@H](CCNC(=N)CN)N5CCCF)c(SC)c4)c(=O)nc3[nH]2)c1 [Compound 61] |  |  |  | 13.6 µM |
| ≤ 16 µg/mL | ≤ 16 µg/mL | C[C@H](N)CCCc1cc(Cl)c(F)c(-c2cc3cn(-c4ccc([C@@H]5CCC[C@@H](CCNC(=N)CN)N5CCCF)cc4)c(=O)nc3[nH]2)c1 [Compound 20] |  |  |  | > 100 µM |
| ≤ 16 µg/mL | ≤ 16 µg/mL | CN=C(CN)NCC[C@@H]1CCC[C@@H](c2ccc(-n3cc4cc(-c5cc(CCC[C@H](C)N)cc(Cl)c5F)[nH]c4nc3=O)cc2)N1 [Compound 18] |  |  |  | > 100 µM |
| ≤ 16 µg/mL | ≤ 16 µg/mL | CSc1cc(-n2cc3cc(-c4cc(CCC[C@@H](N)C5CC5)cc(Cl)c4F)[nH]c3nc2=O)cc(F)c1[C@@H]1CCC[C@@H](CCNC(=N)CN)N1CCCF [Compound 52] |  |  |  | 15.9 µM |
